Test results as given in patent US8637504B2, “Sulfur-containing heterocyclic derivative having beta secretase inhibitory activity” (Shionogi & Co., Ltd., priority 2008, dated 2014).
Where two headings read alike, the source gives them in different places.

Tests used:
Recombinant human BACE-1 = Recombinant human BACE-1 (Homo sapiens (Human), UniProt P56817); test: Assay of β-secretase-inhibiting activity
Solubility test = format: physicochemical; details: pH 1.2, simulated gastric fluid, kinetic from dmso stock; JP-I medium, turbidity after 4 hours
Experimental: A 2-fold dilution series (12 points) of a 10 mM solution of a test compound in DMSO was added to a medium (JP-I, JP-II) (2%), and solubility was assessed by 3 stages (High; >40 Medium; 3-40 μM, Low; <3 μM) from a turbidity after 4 hours (crystallization information).

[1] = Recombinant human BACE-1 7.4 nM, substrate peptide 18 nM, pH 5.0, 30° C. 3 hours

Recombinant human BACE-1, sequence (P56817 46-501): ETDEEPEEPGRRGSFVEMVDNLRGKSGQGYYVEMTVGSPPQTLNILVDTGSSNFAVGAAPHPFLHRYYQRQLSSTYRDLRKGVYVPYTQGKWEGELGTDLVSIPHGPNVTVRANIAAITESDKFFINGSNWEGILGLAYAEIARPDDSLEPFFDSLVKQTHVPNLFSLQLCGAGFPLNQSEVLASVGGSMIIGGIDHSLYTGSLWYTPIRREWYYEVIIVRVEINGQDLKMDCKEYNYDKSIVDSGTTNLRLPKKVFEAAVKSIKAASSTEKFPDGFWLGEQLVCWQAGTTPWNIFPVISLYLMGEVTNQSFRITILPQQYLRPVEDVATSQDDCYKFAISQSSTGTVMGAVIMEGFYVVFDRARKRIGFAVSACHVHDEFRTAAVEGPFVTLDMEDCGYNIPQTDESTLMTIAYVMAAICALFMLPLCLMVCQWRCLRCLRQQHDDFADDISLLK

Row | Structure (SMILES) | IC50 (Recombinant human BACE-1) [nM] | solubility at 4 h (Solubility test) [µM] | IC50 (Recombinant human BACE-1; [1]) [nM]
1 | COCCOc1cnc(C(=O)Nc2cccc(C3(C4CCCCC4)CSC(N)=N3)c2)cn1 (stereo not shown) [Compound 1] | ≤ 1000 |  | 
2 | COc1cnc(C(=O)Nc2cccc(C3(C4CCCCC4)CSC(N)=N3)c2)cn1 (stereo not shown) [Compound 2] |  | > 40 | 
3 | NC1=NC(c2cccc(NC(=O)c3ccc(O)cn3)c2)(C2CCCCC2)CS1 (stereo not shown) [Compound 3] |  |  | 966
4 | COc1ccc(C2(c3cccc(NC(=O)c4ncc(Cl)cc4Cl)c3)CSC(N)=N2)cc1 (stereo not shown) [Compound 4] | ≤ 1000 |  | 
5 | COc1ccc(C2(c3cccc(NC(=O)c4cnc(O)cn4)c3)CSC(N)=N2)cc1 (stereo not shown) [Compound 5] | ≤ 1000 |  | 
6 | NC1=NC(c2ccc(F)cc2)(c2cccc(NC(=O)c3ncc(Cl)cc3Cl)c2)CS1 (stereo not shown) [Compound 9] |  | > 40 | 
7 | Cc1cnc(C(=O)Nc2ccc(F)c([C@]3(C)C=CSC(N)=N3)c2)cn1 [Compound 12] | ≤ 1000 |  | 
8 | COc1cnc(C(=O)Nc2ccc(F)c([C@]3(C)C=CSC(N)=N3)c2)cn1 [Compound 13] | ≤ 1000 |  | 
9 | C#CCOc1cnc(C(=O)Nc2ccc(F)c([C@]3(C)C=CSC(N)=N3)c2)cn1 [Compound 14] | ≤ 1000 |  | 
10 | Cc1nc(C(=O)Nc2ccc(F)c([C@]3(C)C=CSC(N)=N3)c2)co1 [Compound 15] | ≤ 1000 |  | 
11 | C[C@@]1(c2cc(NC(=O)c3ccc(Cl)cn3)ccc2F)C=CSC(N)=N1 [Compound 16] |  |  | 10
12 | COc1cnc(C(=O)Nc2ccc(F)c([C@]3(C)C=C(c4ccccc4)SC(N)=N3)c2)cn1 [Compound 18] | ≤ 1000 |  | 
13 | Cc1cnc(C(=O)Nc2ccc(F)c([C@]3(C)C=C(c4ccccc4)SC(N)=N3)c2)cn1 [Compound 19] | ≤ 1000 |  | 
14 | CC(C)=C1C[C@@](C)(c2cc(NC(=O)c3cnc(C)cn3)ccc2F)N=C(N)S1 [Compound 20] |  |  | 95
15 | COc1cnc(C(=O)Nc2ccc(F)c([C@]3(C)CC(=C(C)C)SC(N)=N3)c2)cn1 [Compound 21] |  |  | 19
16 | COc1cnc(C(=O)Nc2ccc(F)c([C@@]3(C)N=C(N)SC=C3C)c2)cn1 [Compound 22] |  |  | 572
17 | CC1=CSC(N)=N[C@]1(C)c1cc(NC(=O)c2cnc(C)cn2)ccc1F [Compound 23] |  | > 40 | 5280
18 | C#CCOc1cnc(C(=O)Nc2ccc(F)c([C@@]3(C)N=C(N)SC=C3C)c2)cn1 [Compound 24] |  |  | 54

Row | Structure (SMILES) | IC50 (Recombinant human BACE-1) [nM] | solubility at 4 h (Solubility test) [µM] | IC50 (Recombinant human BACE-1; [1]) [nM]
19 | COc1cnc(C(=O)Nc2ccc(F)c([C@]3(C)C=C(C)SC(N)=N3)c2)cn1 [Compound 25] | ≤ 1000 |  | 
20 | C#CCOc1cnc(C(=O)Nc2ccc(F)c([C@]3(C)C=C(C)SC(N)=N3)c2)cn1 [Compound 26] | ≤ 1000 |  | 
21 | CC1=C[C@@](C)(c2cc(NC(=O)c3ccc(C#N)cn3)ccc2F)N=C(N)S1 [Compound 27] | ≤ 1000 |  | 
22 | COc1cnc(C(=O)Nc2cccc([C@]3(C)C=CSC(N)=N3)c2)cn1 [Compound 28] | ≤ 1000 |  | 
23 | C#CCOc1cnc(C(=O)Nc2cccc([C@]3(C)C=CSC(N)=N3)c2)cn1 [Compound 29] | ≤ 1000 |  | 
24 | C[C@@]1(c2cccc(NC(=O)c3ccc(C#N)cn3)c2)C=CSC(N)=N1 [Compound 30] | ≤ 1000 |  | 
25 | C[C@@]1(c2cc(NC(=O)c3cnc(OCCF)cn3)ccc2F)C=CSC(N)=N1 [Compound 31] | ≤ 1000 |  | 
26 | C[C@@]1(c2cc(NC(=O)c3ccc(OCCF)cn3)ccc2F)C=CSC(N)=N1 [Compound 32] | ≤ 1000 | > 40 | 
27 | COCCOc1ccc(C(=O)Nc2ccc(F)c([C@]3(C)C=CSC(N)=N3)c2)nc1 [Compound 33] |  |  | 73
28 | COCCOc1cnc(C(=O)Nc2ccc(F)c([C@]3(C)C=CSC(N)=N3)c2)cn1 [Compound 34] | ≤ 1000 |  | 
29 | C[C@@]1(c2cc(NC(=O)c3cnc(-c4ccc[nH]4)cn3)ccc2F)C=CSC(N)=N1 [Compound 36] | ≤ 1000 |  | 
30 | COc1cnc(C(=O)Nc2ccc(F)c([C@]3(C)C=CSC(N)=N3)c2)c(N)n1 [Compound 37] | ≤ 1000 |  | 
31 | C[C@@]1(c2cc(NC(=O)c3ccc(-c4ccc[nH]4)cn3)ccc2F)C=CSC(N)=N1 [Compound 39] |  |  | 97
32 | Cc1cnc(C(=O)Nc2cccc(C3(C(F)(F)F)CCSC(N)=N3)c2)cn1 (stereo not shown) [Compound 44] |  |  | 2130
33 | NC1=NC(c2cccc(NC(=O)c3ncc(Cl)cc3Cl)c2)(C(F)(F)F)CCS1 (stereo not shown) [Compound 45] | ≤ 1000 |  | 
34 | NC1=NC(c2cccc(NC(=O)c3cnc(OCCF)cn3)c2)(C(F)(F)F)CCS1 (stereo not shown) [Compound 46] |  |  | 611
35 | N#Cc1ccc(C(=O)Nc2cccc(C3(C(F)(F)F)CCSC(N)=N3)c2)nc1 (stereo not shown) [Compound 47] |  |  | 91
